Our source for the IC50, inhibition and Km values is publication PMC3886921, “Cofactor-Independent Phosphoglycerate Mutase from Nematodes Has Limited Druggability, as Revealed by Two High-Throughput Screens” (PLoS Neglected Tropical Diseases, 2014).

Data set [1] has as its target T1, cofactor-independent phosphoglycerate mutase (iPGAM) (Brugia malayi, UniProt Q4VWF8).
T1 construct: gene ipgm-1; Full-length, histidine-tagged
T1 sequence (Q4VWF8 1-515): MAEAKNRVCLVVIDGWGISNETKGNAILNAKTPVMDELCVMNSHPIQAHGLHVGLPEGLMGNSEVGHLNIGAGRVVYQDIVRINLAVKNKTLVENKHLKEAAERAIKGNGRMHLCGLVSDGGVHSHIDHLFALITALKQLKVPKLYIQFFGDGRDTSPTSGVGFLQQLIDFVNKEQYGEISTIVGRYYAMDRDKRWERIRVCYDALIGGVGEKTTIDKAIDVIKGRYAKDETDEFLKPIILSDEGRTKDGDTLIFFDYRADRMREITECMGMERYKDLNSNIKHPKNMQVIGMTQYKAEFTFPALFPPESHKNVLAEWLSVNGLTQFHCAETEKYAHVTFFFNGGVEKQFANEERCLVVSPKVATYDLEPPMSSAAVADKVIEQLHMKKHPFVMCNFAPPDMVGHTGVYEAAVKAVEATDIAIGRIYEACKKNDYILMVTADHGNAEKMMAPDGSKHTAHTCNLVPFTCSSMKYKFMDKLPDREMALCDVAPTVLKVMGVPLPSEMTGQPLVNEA
Nature of the data set: coupled enzyme assay (NADH absorbance at […] nm), luminescence (Kinase-Glo) confirmation. Type of data set: biochemical. (In general: Kinase-Glo measures the ATP left after a reaction by luminescence.)

Data set [2] deals with T2, cofactor-independent phosphoglycerate mutase (iPGAM) (Caenorhabditis elegans, UniProt G5EFZ1).
T2 construct: gene ipgm-1; Full-length, histidine-tagged
T2 sequence (G5EFZ1 1-539): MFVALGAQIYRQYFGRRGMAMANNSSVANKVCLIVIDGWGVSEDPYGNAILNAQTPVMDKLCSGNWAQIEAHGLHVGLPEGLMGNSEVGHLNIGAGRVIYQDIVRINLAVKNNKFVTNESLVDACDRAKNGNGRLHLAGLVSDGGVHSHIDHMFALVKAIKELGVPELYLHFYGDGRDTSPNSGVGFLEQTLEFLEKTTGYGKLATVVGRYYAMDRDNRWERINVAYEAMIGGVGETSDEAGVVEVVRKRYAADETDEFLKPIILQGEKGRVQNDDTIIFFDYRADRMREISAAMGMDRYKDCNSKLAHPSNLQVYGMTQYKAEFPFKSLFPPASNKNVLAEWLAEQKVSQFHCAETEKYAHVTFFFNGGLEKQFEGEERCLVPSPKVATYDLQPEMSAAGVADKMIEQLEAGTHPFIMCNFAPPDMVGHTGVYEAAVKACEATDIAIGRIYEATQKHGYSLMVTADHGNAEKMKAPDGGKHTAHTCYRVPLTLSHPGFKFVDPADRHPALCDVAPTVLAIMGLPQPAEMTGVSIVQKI
Nature of the data set: HTS coupled enzyme assay at […] ([…] inhibition), re-tested and reconfirmed. The data set is classed as biochemical.

The target in data set [3] is T1, cofactor-independent phosphoglycerate mutase (iPGAM). Nature of the data set: coupled enzyme assay (NADH absorbance at […] nm), dose-response; luminescence (Kinase-Glo) confirmation. The data set is classed as biochemical.
Substrate in data set [4]: O=C(O)[C@H](O)COP(=O)(O)O
Kind of data set: enzyme kinetics (Km), coupled assay. The following applies: Mg2+. The data set is classed as biochemical, Brugia malayi.

Substrate in data set [5]: O=C(O)[C@H](O)COP(=O)(O)O
Kind of data set: enzyme kinetics (Km), coupled assay. The following applies: Mg2+. The data set is classed as biochemical, Caenorhabditis elegans.

As usually defined, the IC50 is the midpoint of a concentration-inhibition curve. Higher therefore signals weaker potency. Broadly, the inhibition is the relative decrease from the control value, in per cent. Higher therefore signals strong suppression. As a reminder, the Km is the concentration of substrate that gives half-maximal velocity.

A value given as a limit tells only on which side of the number the result lay.

In data set [1], `CCc1cc2c[n+](C3CCCCC3)sc2s1` [Genz-2] showed an IC50 greater than 10 µM. The molecule also had an inhibition at 10 µM in data set [2] greater than 40%.

In data set [3], `Nc1cc2cccnc2c2ncccc12` [NCDS-1, 5-amino-1,10-phenanthroline] gave an IC50 greater than 10 µM.

B1: cofactor-independent phosphoglycerate mutase (iPGAM) (Brugia malayi) (protein)
chain: T1 sequence (Q4VWF8 1-515)
notes: Full-length, histidine-tagged
Turning to B1, the Michaelis constant (Km) in data set [4] is on record as 0.37 mM.

B2: cofactor-independent phosphoglycerate mutase (iPGAM) (Caenorhabditis elegans) (protein)
chain: T2 sequence (G5EFZ1 1-539)
notes: Full-length, histidine-tagged
Regarding B2, in data set [5], the Km is recorded as 0.38 mM.
